Experimental data from patent publication US20250255850A1, “PHARMACEUTICAL COMPOSITIONS FOR TREATING NEUROLOGICAL CONDITIONS” (YISSUM RESEARCH DEVELOPMENT COMPANY OF THE HEBREW …, priority 2021, published 2025).
Values after ≈ are worked out from the molar mass of the structure shown.

How the values were obtained:
[1] = system: 3-nitrotyrosine; test: Western blot of 3-nitrotyrosine in cortical tissue, SHANK3 mutant group (M1); type: in vivo, mouse; conditions: SHANK3 mutant mice treated with 7-NI (M1+7-NI) vs M1
Procedure: (§1) Behavioral testing started after 2 hours of treatment.
To further corroborate these findings, the expression of 3-nitrotyrosine in cortical tissue of the wild type (WT), compared with the SHANK3 mutant group (M1), and SHANK3 group treated with 7-NI (M1+7-NI), and in cortical tissue of the wild type (WT), compared with the CNTNAP2^(−/−) mutant group (M2), and the CNTNAP2^(−/−) mutant group treated with 7-NI (M2+7—NI) was tested, and the obtained data is presented in FIGS. 3C-D (for M1) and in FIGS. 3E-F (for M2).

[2] = system: Mutant mice (CNTNAP2 and SHANK3 mouse models); test: Novel object recognition test (NOR), 7-NI-treated mutant mice (Example 3); type: in vivo; conditions: 7-NI IP 80 mg/kg/day for 7 days; mutant mice vs vehicle
Procedure: as §1
(§2) Novel object recognition (see, FIG. 4A): The novel object test for object recognition and memory takes place in a white open field arena (45×45 cm). The test involves a set of two unique novel objects, each about the size of a mouse, constructed from two different materials and non-uniform in shape. The test consisted of one 10-minute habituation session, a 5-minute familiarization session and a 5-minute recognition test, each video tracked (Noldus Ethovision). During the habituation, animals were allowed to freely explore an empty open field. At the end of the session, they were shifted from the open field to a place in a temporary clean holding cage for about 2 minutes. Two identical objects were placed on the median line at 10 cm from each wall and the animal was returned to the open field and allowed to explore the objects for 5 minutes before being returned to its home cage. Next day, one familiar object and one novel object were placed in the open field to the location where the identical objects were placed during the familiarization session and the mouse was allowed to explore them for a 5-minute recognition test. […] Familiarization and recognition sessions were scored for total time spent investigating each object, the number of object interactions and the latency of the first object interaction. […]

[3] = system: CNTNAP2−/− mutant mice; test: Three-chamber sociability test, CNTNAP2-/- mutant mice (M2); type: in vivo, mouse; conditions: 7-NI i.p. 80 mg/kg daily for 10 days, vs untreated M2
Procedure: as §1
(§3) Three-chambered sociability test (see, FIG. 4B): Sociability and preference for social novelty and social recognition were tested in a three-chambered apparatus. The subjected mouse was first placed in the central, neutral chamber and allowed to explore for 10 minutes with all the doors closed. Next, doors were opened and the mouse was allowed to freely explore the other two empty chambers (1 and 2) for an additional 10 minutes. Lack of side preference was confirmed during this habituation.
(§4) Two cylindrical wire cages were placed, one in chamber 1 and the other in chamber 2. For the sociability test, the test animal was introduced to the middle chamber and allowed to adjust for 5 minutes. Then, an unfamiliar mouse was introduced into a wire cage in one of the side-chambers, and the other side-chamber remained empty. The time spent by the test mouse exploring the wire cage with an unfamiliar mouse inside was recorded for 5 minutes.
In another set of tests, the potential effects of inhibiting NO on the cognitive functions was assayed on an additional mouse model of ASD-CNTNAP2−/− mutant mice. The mice were divided into three testing groups: WT mice, CNTNAP2−/− mutant mice (M2), and mutant mice that were administered with 7-NI (M2+7NI).

[4] = system: SHANK3 mutant mice; test: Three-chamber sociability test, SHANK3 mutant mice; type: in vivo, mouse
Procedure: as §3, §4
Next, to examine social memory, novel mice is introduced to the empty cage and the tested mice is examined whether they are interested in the novel mice compared to the familiar.
A dose dependent study was conducted to determine the optimal dose that may produce the greatest effect on mice behavior. The SHANK3 mutant mice (n=5 for each group) were treated with the 7-NI (i.p) at doses of 0, 20, 50, and 80 mg/kg. This was followed by a set of behavioral tests to assess the proper dose of 7-NI that can reverse the autistic phenotypes observed in this model.
A three-chamber sociability test was conducted to evaluate the interest of mice in engaging in social interaction with a stranger mouse, as described hereinabove and shown in FIG. 4B. […] Comparing to the 50 mg/kg, although statistically the difference is not significant, the 80 mg/kg-treated group spent more time interacting with the stranger mouse.
A 100 μL injection of the poly(sebacic acid-ricinoleic acid) (PSARA) gel formulation with 7NI was used to evaluate its effect in reversing ASD-like behaviors in SHANK3 mice. […]

[5] = system: SH-SY5Y cells; test: Clonogenic survival assay; type: cell-based, human; conditions: 7-NI 100 μM for 24 hours or siRNA-nNOS, 14 days
Procedure: Cells were seeded into 6-well plates at concentrations of 500/well or 1000/well in triplicates. After 24 hours, 7-NI was added (100 μM for 24 hours), or cells were transiently transfected with siRNA-nNOS, as described above, before changing to serum-containing medium. Cells were incubated for 14 days to form visible colonies. Colonies were stained with crystal violet, washed with PBS, air-dried, and imaged. The colonies were visualized using ImageJ software. Cell colonies of greater than 50 cells were identified and counted (Lopez-Rivera et al., 2014).

[6] = Solubility of 7-NI in PBS; type: physicochemical; conditions: phosphate buffer (PBS), aqueous buffer; 10 mM phosphate buffer pH 7.2
[7] = system: SHANK3 knockout mice; test: Novel object recognition test, SHANK3 knockout mice (M1); type: in vivo, mouse; conditions: 7-NI IP 80 mg/kg/day for 10 days
Procedure: as §1, §2

## O=[N+]([O-])c1cccc2cn[nH]c12 [7-NI, 7-nitroindazole]
[1]
  expression of 3-Ntyr in cortical tissue: reduced the expression of 3-Ntyr
[2]
  preference for the novel object (NOR test): exhibited a significant preference for the novel object over the familiar object
[3]
  time interacting with the stranger mouse (three-chamber sociability): spent significantly prolonged time interacting with the stranger mouse
[4]; 7-NI 80 mg/kg compared to 20 mg/kg
  time interacting with the stranger mouse (first session): spent significantly more time interacting with the stranger mouse
[4]; 7-NI 80 mg/kg compared to lower doses
  time interacting with the novel mouse (S2) (second session): spent more time interacting with the novel mouse (S2)
[4]; doses 0, 20, 50, 80 mg/kg i.p.
  dose yielding the greatest reversal of the autistic phenotypes: 80 mg/kg
[5]
  number of colonies (clonogenic survival): decrease in the number of colonies
[6]
  solubility: 140 µg/mL (≈ 858 µM)
[7]; SHANK3 knockout mice aged 6 weeks
  preference for the novel object (NOR test): exhibited a significant preference for the novel object over the familiar one
[7]; SHANK3 knockout mice aged 10 months
  memory (novel object recognition) in aged mice: restored
